# Assay results as given in PubChem BioAssay AID1963860 (Molecular Pharmacology Branch, DTP, NCI, 2024).
# Test system: CN0375-F725-PDC KRAS spheroid viability
# Experiment: Anticancer human tumor CN0375-F725-PDC patient-derived colon carcinoma cell line growth inhibition [KRAS2]
# Conditions: spheroids with HUVEC and MSC; for IC50: curve of first compound; for viability, T/C: stronger effect = lower value
# In short: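 KRAS-mutant tumor cells were grown as spheroids with HUVEC endothelial cells and human MSCs as stroma. Targeted agents were tested alone and with KRAS pathway inhibitors. Doses started at or near clinical Cmax, or 10 microM, descending half-log.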
# [1] = second compound 0.1 µM, first compound 0.01 µM
# [2] = second compound 0.1 µM, first compound 0.0316 µM
# [3] = second compound 0.316 µM, first compound 0.01 µM
# [4] = second compound 0.316 µM, first compound 0.0316 µM
# [5] = second compound 1 µM, first compound 0.01 µM
# [6] = second compound 1 µM, first compound 0.0316 µM
# [7] = second compound 3.16 µM, first compound 0.01 µM
# [8] = second compound 3.16 µM, first compound 0.0316 µM
# [9] = second compound 10 µM, first compound 0.01 µM
# [10] = second compound 10 µM, first compound 0.0316 µM
# 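Also: spheroids exposed to agents for 7 days.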
structure (smiles),measurement,setting,value
CC(=O)Nc1cccc(-n2c(=O)n(C3CC3)c(=O)c3c(Nc4ccc(I)cc4F)n(C)c(=O)c(C)c32)c1 + COc1cc2nc(C)nc(NC(C)c3cc(N)cc(C(F)(F)F)c3)c2cc1OC1CCOC1,IC50,second compound 0.1 µM,4.1 nM
same,IC50,second compound 0.316 µM,3.26 nM
same,IC50,second compound 1 µM,1.85 nM
same,IC50,second compound 3.16 µM,0.913 nM
same,IC50,second compound 10 µM,< 0.1 nM
same,"viability, T/C","second compound 0.1 µM, first compound 0.0001 µM",88.3%
same,"viability, T/C","second compound 0.1 µM, first compound 0.000316 µM",85.3%
same,"viability, T/C","second compound 0.1 µM, first compound 0.001 µM",65%
same,"viability, T/C","second compound 0.1 µM, first compound 0.00316 µM",51.6%
same,"viability, T/C",[1],43.9%
same,"viability, T/C",[2],30.9%
same,"viability, T/C","second compound 0.316 µM, first compound 0.0001 µM",84.9%
same,"viability, T/C","second compound 0.316 µM, first compound 0.000316 µM",77.5%
same,"viability, T/C","second compound 0.316 µM, first compound 0.001 µM",60.7%
same,"viability, T/C","second compound 0.316 µM, first compound 0.00316 µM",49.7%
same,"viability, T/C",[3],41.9%
same,"viability, T/C",[4],31.6%
same,"viability, T/C","second compound 1 µM, first compound 0.0001 µM",82.6%
same,"viability, T/C","second compound 1 µM, first compound 0.000316 µM",70.9%
same,"viability, T/C","second compound 1 µM, first compound 0.001 µM",54.6%
same,"viability, T/C","second compound 1 µM, first compound 0.00316 µM",44.1%
same,"viability, T/C",[5],38.4%
same,"viability, T/C",[6],29.8%
same,"viability, T/C","second compound 3.16 µM, first compound 0.0001 µM",75.4%
same,"viability, T/C","second compound 3.16 µM, first compound 0.000316 µM",62.4%
same,"viability, T/C","second compound 3.16 µM, first compound 0.001 µM",49.3%
same,"viability, T/C","second compound 3.16 µM, first compound 0.00316 µM",36.4%
same,"viability, T/C",[7],33.5%
same,"viability, T/C",[8],25.4%
same,"viability, T/C","second compound 10 µM, first compound 0.0001 µM",14%
same,"viability, T/C","second compound 10 µM, first compound 0.000316 µM",13.4%
same,"viability, T/C","second compound 10 µM, first compound 0.001 µM",9.44%
same,"viability, T/C","second compound 10 µM, first compound 0.00316 µM",3.96%
same,"viability, T/C",[9],6.23%
same,"viability, T/C",[10],1.76%
CC(=O)OC12COC1CC(O)C1(C)C(=O)C(O)C3=C(C)C(OC(=O)C(O)C(NC(=O)OC(C)(C)C)c4ccccc4)CC(O)(C(OC(=O)c4ccccc4)C21)C3(C)C (stereo not given) + COc1cc2nc(C)nc(NC(C)c3cc(N)cc(C(F)(F)F)c3)c2cc1OC1CCOC1,IC50,second compound 0.1 µM,> 3160 nM
same,IC50,second compound 0.316 µM,> 3160 nM
same,IC50,second compound 1 µM,> 3160 nM
same,IC50,second compound 3.16 µM,> 3160 nM
same,IC50,second compound 10 µM,1080 nM
same,"viability, T/C",[1],99.6%
same,"viability, T/C",[2],96.2%
same,"viability, T/C","second compound 0.1 µM, first compound 0.1 µM",87.8%
same,"viability, T/C","second compound 0.1 µM, first compound 0.316 µM",84.4%
same,"viability, T/C","second compound 0.1 µM, first compound 1 µM",80.5%
same,"viability, T/C","second compound 0.1 µM, first compound 3.16 µM",72.7%
same,"viability, T/C",[3],91%
same,"viability, T/C",[4],91.8%
same,"viability, T/C","second compound 0.316 µM, first compound 0.1 µM",83.6%
same,"viability, T/C","second compound 0.316 µM, first compound 0.316 µM",80%
same,"viability, T/C","second compound 0.316 µM, first compound 1 µM",74.9%
same,"viability, T/C","second compound 0.316 µM, first compound 3.16 µM",69.5%
same,"viability, T/C",[5],89.8%
same,"viability, T/C",[6],101%
same,"viability, T/C","second compound 1 µM, first compound 0.1 µM",87.8%
same,"viability, T/C","second compound 1 µM, first compound 0.316 µM",82.7%
same,"viability, T/C","second compound 1 µM, first compound 1 µM",80.4%
same,"viability, T/C","second compound 1 µM, first compound 3.16 µM",71.4%
same,"viability, T/C",[7],77.7%
same,"viability, T/C",[8],70.6%
same,"viability, T/C","second compound 3.16 µM, first compound 0.1 µM",75.1%
same,"viability, T/C","second compound 3.16 µM, first compound 0.316 µM",63.4%
same,"viability, T/C","second compound 3.16 µM, first compound 1 µM",71.1%
same,"viability, T/C","second compound 3.16 µM, first compound 3.16 µM",63.6%
same,"viability, T/C",[9],68.3%
same,"viability, T/C",[10],65.6%
same,"viability, T/C","second compound 10 µM, first compound 0.1 µM",64.6%
same,"viability, T/C","second compound 10 µM, first compound 0.316 µM",52.6%
same,"viability, T/C","second compound 10 µM, first compound 1 µM",54.9%
same,"viability, T/C","second compound 10 µM, first compound 3.16 µM",39.9%
